Laboratory results from article PMC9916778 (International Journal of Molecular Sciences, 2023).
Like-named read-outs stand apart in the source and are kept apart here.

Experiments:
[1] = tested on: A2780 ovarian carcinoma cells; assay: In vitro cytotoxicity (MTT assay), A2780; assay type: cell-based, human
Procedure: (§1) The reference normal cell line of human fetal fibroblasts (MRC-5) was obtained from the same commercial source and maintained according to the producer’s instructions. The half-maximal inhibitory concentrations (IC50) were calculated from dose–response curves by means of the GraphPad Prism 6 software (GraphPad Software, San Diego, CA, USA).

[2] = tested on: A2780R Cisplatin-resistant ovarian carcinoma cells; assay: In vitro cytotoxicity (MTT assay), A2780R; assay type: cell-based, human; conditions: ± standard deviation, triplicate
Procedure: as §1, with “The testing was performed on the ovarian carcinoma (A2780), Cisplatin-resistant ovarian carcinoma (A2780R), prostate adenocarcinoma (PC-3), prostate carcinoma (22Rv1), and leukemia monocytic (THP-1) and intestinal colon adenocarcinoma (LS180) human cell lines that were obtained from the ATCC collection of cell lines and cultivated according to the producer’s instructions. The reference” for “The reference”

[3] = tested on: PC-3 prostate adenocarcinoma cells; assay: In vitro cytotoxicity (MTT assay), PC-3; assay type: cell-based, human; conditions: ± standard deviation, triplicate
Procedure: as §1, with “The testing was performed on the ovarian carcinoma (A2780), Cisplatin-resistant ovarian carcinoma (A2780R), prostate adenocarcinoma (PC-3), prostate carcinoma (22Rv1), and leukemia monocytic (THP-1) and intestinal colon adenocarcinoma (LS180) human cell lines that were obtained from the ATCC collection of cell lines and cultivated according to the producer’s instructions. The reference” for “The reference”

[4] = tested on: 22Rv1 prostate carcinoma cells; assay: In vitro cytotoxicity (MTT assay), 22Rv1; assay type: cell-based, human; conditions: ± standard deviation, triplicate
Procedure: as §1, with “The testing was performed on the ovarian carcinoma (A2780), Cisplatin-resistant ovarian carcinoma (A2780R), prostate adenocarcinoma (PC-3), prostate carcinoma (22Rv1), and leukemia monocytic (THP-1) and intestinal colon adenocarcinoma (LS180) human cell lines that were obtained from the ATCC collection of cell lines and cultivated according to the producer’s instructions. The reference” for “The reference”

[5] = tested on: THP-1 leukemia monocytic cells; assay: In vitro cytotoxicity (MTT assay), THP-1; assay type: cell-based, human; conditions: ± standard deviation, triplicate
Procedure: as §1, with “The testing was performed on the ovarian carcinoma (A2780), Cisplatin-resistant ovarian carcinoma (A2780R), prostate adenocarcinoma (PC-3), prostate carcinoma (22Rv1), and leukemia monocytic (THP-1) and intestinal colon adenocarcinoma (LS180) human cell lines that were obtained from the ATCC collection of cell lines and cultivated according to the producer’s instructions. The reference” for “The reference”

[6] = tested on: LS180 intestinal colon adenocarcinoma cells; assay: In vitro cytotoxicity (MTT assay), LS180; assay type: cell-based, human; conditions: ± standard deviation, triplicate
Procedure: as §1, with “The testing was performed on the ovarian carcinoma (A2780), Cisplatin-resistant ovarian carcinoma (A2780R), prostate adenocarcinoma (PC-3), prostate carcinoma (22Rv1), and leukemia monocytic (THP-1) and intestinal colon adenocarcinoma (LS180) human cell lines that were obtained from the ATCC collection of cell lines and cultivated according to the producer’s instructions. The reference” for “The reference”

[7] = tested on: MRC5 human fetal fibroblasts; assay: In vitro cytotoxicity (MTT assay), normal MRC-5 fibroblasts; assay type: cell-based; conditions: ± standard deviation, triplicate, read-out: IC50, MRC5 (healthy cells)
Procedure: as §1, with “The testing was performed on the ovarian carcinoma (A2780), Cisplatin-resistant ovarian carcinoma (A2780R), prostate adenocarcinoma (PC-3), prostate carcinoma (22Rv1), and leukemia monocytic (THP-1) and intestinal colon adenocarcinoma (LS180) human cell lines that were obtained from the ATCC collection of cell lines and cultivated according to the producer’s instructions. The reference” for “The reference”

[8] = tested on: human cancer cell lines (A2780, A2780R, PC-3, 22Rv1, and THP-1); assay: In vitro cytotoxicity, summary statements over the panel of cell lines; assay type: cell-based
Procedure: as §1, with “The testing was performed on the ovarian carcinoma (A2780), Cisplatin-resistant ovarian carcinoma (A2780R), prostate adenocarcinoma (PC-3), prostate carcinoma (22Rv1), and leukemia monocytic (THP-1) and intestinal colon adenocarcinoma (LS180) human cell lines that were obtained from the ATCC collection of cell lines and cultivated according to the producer’s instructions. The reference” for “The reference”

[9] = tested on: A2780 cells; assay: Cell cycle analysis (flow cytometry); assay type: cell-based, human; conditions: A2780, half-cytotoxic concentration, 24 h
Procedure: After 24 h, the cells were treated with a 4 µM solution of complex (1) and cultivated for the next 24 h. Then, the cells were washed once with PBS (0.1 M, pH 7.4), and cell cycle analysis was performed using a BD Cycletest^TM Plus DNA kit (Becton Dickinson, Franklin Lakes, NJ, USA) according to the manufacturer’s protocol. The data were acquired using a BD FACSVerse flow cytometer (Becton Dickinson, USA) in three independent experiments, each performed in duplicate, while at least 5 × 10^3 events were recorded for each sample.

[10] = tested on: A2780 cells; assay: Induction of apoptosis, Annexin V-FITC/PI staining; assay type: cell-based, human; conditions: A2780, half-cytotoxic concentration, 24 h
Procedure: (§2) The induction of cell death by complex (1) was studied by two methods in the A2780 cell line. Firstly, the induction of apoptosis was tested using an Annexin V-FITC/PI commercial kit (V13242, Thermo Fisher Scientific, USA). Second, caspase 3/7 activation was monitored using the CellEvent™ Caspase-3/7 Green Flow Cytometry Assay Kit (C10427, Thermo Fisher Scientific, USA). Both assays were performed according to the manufacturers’ protocols with one modification in the caspase induction assay: the use of CellEvent^TM Caspase-3/7 Green Detection Reagent was only for the detection of caspase 3/7 activation. The general procedure was as follows: 5 × 10^4 cells per well were seeded in a 24-well cell culture plate, and after 24 h, the cells were treated with 4 µM solution of complex (1) and cultivated for next 24 h. […] The trypsin was blocked by adding the cell culture medium to a final volume of 500 µL, and the resulting cell suspensions were divided into two separate 250 µL aliquots. The first set of aliquots was used to evaluate the Annexin V-FITC/PI assay, whilst the second one was used for the caspase 3/7 activation assay. Both assays were performed using a BD FACSVerse flow cytometer (Becton Dickinson, USA) in three independent experiments, each performed in duplicate.

[11] = tested on: caspases 3/7; assay: Caspase 3/7 activation (flow cytometry); assay type: cell-based, human; conditions: A2780, half-cytotoxic concentration, 24 h
Procedure: as §2

[12] = tested on: A2780 cells; assay: Induction of autophagy (CYTO-ID kit); assay type: cell-based, human; conditions: A2780, half-cytotoxic concentration, 24 h
Procedure: The induction of autophagy by complex (1) was studied using a CYTO-ID® Autophagy Detection Kit 2.0 (ENZO, New York, NY, USA) according to the manufacturer’s protocol. Briefly, the A2780 cells were seeded in a 24-well cell culture plate at 5 × 10^4 cells per well and cultivated for 24 h. The next day, the cells were treated with complex (1) at 4 µM. […] Then, the cells were stained with CYTO-ID® Green stain solution and incubated for 30 min in the dark. After the final wash with PBS, the cell suspensions were analyzed using the BD FACSVerse flow cytometer (Becton Dickinson, USA) in three separate experiments, while at least 10^4 events were recorded for each sample prepared in duplicates. The cells incubated with the mixture of chloroquine (10 µM) and rapamycin (0.5 µM) for 18 h were used as a positive control.

[13] = tested on: A2780 cells; assay: Mitochondrial membrane potential analysis (MITO-ID); assay type: cell-based, human; conditions: A2780, half-cytotoxic concentration, 24 h
Procedure: The A2780 cells were seeded in 24-well cell culture plates at 5 × 10^4 cells/well and cultivated for 24 h. The next day, the complex (1) was added to a final concentration of 4 µM, and the cells were incubated for another 24 h. […] The cells were then isolated by centrifugation and resuspended in a staining solution prepared according to the manufacturer’s protocol from a MITO-ID® Membrane Potential Detection kit (Enzo Life Sciences, USA). Finally, the cells were analyzed using a BD FACSVerse flow cytometer (Becton Dickinson, USA). The control was carried out by treatment with 2 µM carbonyl cyanide 3-chlorophenylhydrazone (CCCP). Three independent experiments were conducted, each in duplicate.

[14] = tested on: NF-κB; assay: NF-κB activity in LPS-challenged cells (SEAP reporter); assay type: cell-based, human; conditions: 100 nM, 1 h pre-treatment, LPS 24 h, THP1-Blue NF-κB monocytes
Procedure: The effect of the tested compounds to influence the function of transcription factor NF-κB was determined on lipopolysaccharide (LPS)-challenged THP1-Blue™ NF-κB cells as we described previously. […] After 24 h incubation, the activity of NF-κB was determined as the amount of secreted embryonic alkaline phosphatase using Quanti-Blue™ medium (Invivogen).

[15] = tested on: PPARγ; assay: Immunocytochemical analysis of PPARγ expression and localisation; assay type: cell-based, human; conditions: 100 nM, 1 h pre-treatment, LPS-stimulated THP1-Blue NF-κB macrophages
Procedure: THP1-Blue™ NF-κB cells were seeded onto a µ-Slide 8 Well (Ibidi; Gräfelfing, Germany) and differentiated into macrophages by […] (PMA) at the final concentration of 50 ng/mL, as was described previously.
Differentiated macrophages were washed by PBS and covered by fresh serum-free medium for 2 h. […] One hour later, the cells were challenged by LPS for 24 h. Then, the cells were washed by PBS and fixed by 4% paraformaldehyde dissolved in PBS for 10 min. Cell permeabilization and blocking of free binding sites were performed by 0.1% (v/v) Triton X100 and 5% (w/v) bovine serum albumin (BSA) dissolved in PBS for 1 h at room temperature. After that, cells were washed by PBS with 0.1% (v/v) Tween 20 and covered by fresh PBS with 5% BSA and 0.1% Tween 20 containing Alexa Fluor® 546-labelled anti-PPARγ antibody diluted 1:100 (catalogue number sc-7273; Santa Cruz Biotechnology; Dallas, TX, USA) for a further 24 h. Then, cells were washed by PBS with 0.1% Tween 20 and incubated with Hoechst stain diluted 1:2000 for 10 min. The remaining stain was washed out by PBS and covered by fresh PBS for further microscope analysis. The confocal microscope Leica TCS SP8 MP (Leica Microsystems, Mannheim, Germany) was used for obtaining the images for the immunocytochemical analysis of PPARγ expression and localization.

[16] = tested on: A2780 cells; conditions: 23 nM concentration ref 25; cited from earlier work
[17] = tested on: Caco-2 cells; conditions: read-out: IC50, antiproliferative effect, Caco-2 cells; cited from earlier work

Molecule `c1ccc([PH]([Au][n]2cnc3c(NCc4ccco4)ncnc32)(c2ccccc2)c2ccccc2)cc1` [[Au(kin)(PPh3)] (1), [Au(kin)(PPh3)]] has an IC50 ([1]; 24 h incubation, read-out: Time-dependent in vitro cytotoxicity (IC50), A2780, 24 h) of 2900 ± 700 nM, an IC50 ([1]; 72 h incubation, read-out: Time-dependent in vitro cytotoxicity (IC50), A2780, 72 h) of 3000 ± 600 nM and an IC50 ([1]; MTT, 24 h incubation, ± standard deviation, triplicate, read-out: IC50, A2780) of 2900 ± 700 nM. It also gave an IC50 ([1]; read-out: IC50, A2780, after 48 h and 72 h incubation, 48 h and 72 h incubation, insignificant changes) of ~3000 nM, an IC50 ([1]; read-out: Time-dependent in vitro cytotoxicity (IC50), A2780, 48 h, 48 h incubation) of 3000 ± 300 nM and an IC50 [2] of 5000 ± 1500 nM. The IC50 [3] was 4800 ± 1300 nM, the IC50 [4] was 3700 ± 500 nM and the IC50 [5] was 1100 ± 200 nM. For the same molecule, the IC50 [6] was > 10000 nM, the IC50 [7] was > 10000 nM and the IC50 ([8]; A2780, A2780R, PC-3, 22Rv1, and THP-1, read-out: IC50 against human cancer cell lines (summary)) was 1000 to 5000 nM. The “selectivity index (SI)” value ([8]; IC50 for normal cell line/IC50 for cancerous cell line) was “higher than 2”, the “Population of cells in G2/M phase” value [9] was 24.8 ± 1.0% and the “Population of cells in S phase” value [9] was 22.6 ± 1.6%. For the same molecule, the “Number of cells in the G0/G1 phase” value ([9]; vs untreated control) was “significant decrease in the number of cells in the G0/G1 phase”, the “Cells in early stage apoptosis (Annexin V+/PI-)” value [10] was “around 10%” and the “Cells in late stage apoptosis (Annexin V+/PI+)” value [10] was “around 30%”. The “Cells with active executioner caspases 3/7” value [11] was “around 40%”, the “Induction of autophagy” value [12] was “not shown to cause metabolic stress strong enough to induce the autophagy” and the “Damage to mitochondrial membranes” value [13] was “clearly the least effective”. For the same molecule, the “Effect on LPS-stimulated NF-κB activity” value [14] was “did not show any effect on the activity of NF-κB” and the “Effect on the amount of PPARγ” value [15] was “slightly increase the amount of PPARγ”.

For `CCN(CC)C(=S)[S][Au][PH](c1ccccc1-c1ccccc1)(C(C)(C)C)C(C)(C)C` [diethyldithiocarbamato-[(1,1′-biphenyl-2-yl)di-tert-butylphosphine] gold(I) complex], the “Cells in G2/M arrest, A2780” value [16] is given as “around 30%”.

For [Au(tpy)Cl(2-TU)], the IC50 [17] is listed as 510 ± 280 nM.
